Measurements reported in patent US12252524B2, “GIP/GLP1 co-agonist compounds” (Eli Lilly and Company, priority 2018, dated 2025).
Numbered stars: 1 amine (or outer) side, 2 acyl side, 3 side chain; on linkers, the order of the positions; unused ones are H or OH. Square brackets hold non-standard residues; d marks the D form. Side chains are listed from the residue outwards. Peptide text beside a SMILES is read from it. * marks the point of attachment. C20 diacid = O=C(O)CCCCCCCCCCCCCCCCCCC(=O)*; γGlu = O=C(O)[C@H](CCC(=O)[*:2])N[*:1]; αMeF = C[C@](N)(Cc1ccccc1)C(=O)O; Aad = N[C@@H](CCCC(=O)O)C(=O)O; αMeL = CC(C)C[C@](C)(N)C(=O)O; AEEA = NCCOCCOCC(=O)O; Aib = CC(C)(N)C(=O)O

Assays:
[1] = biological target: human GLP-1 receptor (GLP-1R) (Homo sapiens, UniProt P43220); assay: cAMP pharmacological functional assay in presence of casein, hGLP-1R; assay type: cell-based; settings: HEK293 cells expressing hGLP-1R, 0.1% Casein, geometric mean; read-out: hGLP1R cAMP Rel EC50 nM (SEM, n)
Sequence of human GLP-1 receptor (GLP-1R) (P43220 24-463): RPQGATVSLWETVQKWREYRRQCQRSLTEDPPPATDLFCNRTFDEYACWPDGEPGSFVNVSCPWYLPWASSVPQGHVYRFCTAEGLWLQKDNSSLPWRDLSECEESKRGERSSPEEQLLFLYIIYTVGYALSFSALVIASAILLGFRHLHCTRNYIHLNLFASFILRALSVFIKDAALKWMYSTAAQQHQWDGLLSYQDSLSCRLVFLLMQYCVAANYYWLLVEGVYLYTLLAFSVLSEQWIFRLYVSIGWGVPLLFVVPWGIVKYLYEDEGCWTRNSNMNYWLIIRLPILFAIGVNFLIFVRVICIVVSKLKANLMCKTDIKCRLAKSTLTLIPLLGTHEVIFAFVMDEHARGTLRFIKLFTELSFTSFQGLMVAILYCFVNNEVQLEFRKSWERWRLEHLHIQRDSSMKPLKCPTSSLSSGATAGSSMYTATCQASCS

human GIP receptor = biological target: T1, human GIP receptor (Homo sapiens, UniProt P48546); assay: [125I]-GIP binding (SPA), human GIP receptor; settings: read-out: hGIPR Ki, nM (SEM, n)
T1 construct: expressed in transfected cells; crude membranes
T1 sequence (P48546 22-466): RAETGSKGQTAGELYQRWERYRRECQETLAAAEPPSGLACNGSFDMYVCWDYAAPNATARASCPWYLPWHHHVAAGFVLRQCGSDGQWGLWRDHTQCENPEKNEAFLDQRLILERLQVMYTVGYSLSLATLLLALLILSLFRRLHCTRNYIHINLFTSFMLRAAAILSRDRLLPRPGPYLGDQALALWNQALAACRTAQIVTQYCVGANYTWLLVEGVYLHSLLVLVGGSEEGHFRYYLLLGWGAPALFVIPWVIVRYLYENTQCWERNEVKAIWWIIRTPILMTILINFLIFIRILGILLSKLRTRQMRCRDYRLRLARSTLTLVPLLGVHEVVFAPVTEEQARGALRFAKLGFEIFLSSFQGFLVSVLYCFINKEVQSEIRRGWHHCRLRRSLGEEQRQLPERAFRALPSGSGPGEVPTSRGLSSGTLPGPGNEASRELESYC

[2] = biological target: T2, gastric inhibitory peptide receptor (GIPR) (Homo sapiens, UniProt P48546); assay: cAMP pharmacological functional assay in presence of casein, hGIPR; assay type: cell-based; settings: HEK293 cells expressing hGIPR, 0.1% Casein, geometric mean; read-out: hGIPR cAMP Rel EC50 nM (SEM, n)
T2 sequence (P48546 22-466): T1 sequence (P48546 22-466)

human GLP-1R = human GLP-1R (Homo sapiens, UniProt P43220); assay: [125I]-GLP-1 binding (SPA), human GLP-1 receptor; set-up: expressed in transfected cells; crude membranes; settings: read-out: hGLP1R Ki, (nM) (SEM, n)
Sequence of human GLP-1R (P43220 24-463): as the sequence (P43220 24-463) above
Method in brief: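 Frozen cell pellets are lysed on ice in hypotonic Tris buffer, pH 7.5, homogenized, and centrifuged to a membrane pellet resuspended at about 1 to 3 mg/mL. Binding is then measured in HEPES-based buffer at pH 7.4, and curves are fitted to give IC50 and Ki.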

human Gcg receptor = biological target: T3, human Gcg receptor (Homo sapiens, UniProt P47871); assay: [125I]-Glucagon binding (SPA), human Gcg receptor; settings: read-out: hGLcgR Ki, nM (SEM, n)
T3 construct: expressed in transfected cells; crude membranes
T3 sequence (P47871 26-477): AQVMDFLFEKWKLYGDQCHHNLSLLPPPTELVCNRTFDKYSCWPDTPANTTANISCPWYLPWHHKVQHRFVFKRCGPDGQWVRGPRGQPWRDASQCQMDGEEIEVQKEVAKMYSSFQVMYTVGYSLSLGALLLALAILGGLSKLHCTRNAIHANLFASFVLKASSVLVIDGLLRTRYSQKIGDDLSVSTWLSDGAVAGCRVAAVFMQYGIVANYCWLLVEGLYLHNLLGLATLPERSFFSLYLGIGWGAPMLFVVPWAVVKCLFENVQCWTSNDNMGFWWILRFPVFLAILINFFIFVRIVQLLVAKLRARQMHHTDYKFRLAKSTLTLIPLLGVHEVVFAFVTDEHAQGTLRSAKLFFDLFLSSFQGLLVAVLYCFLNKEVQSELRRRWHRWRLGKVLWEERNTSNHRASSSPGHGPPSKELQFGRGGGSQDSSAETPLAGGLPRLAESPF
Method in brief: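 Cell pellets were lysed in hypotonic Tris buffer, pH 7.5, homogenized, and spun at low then high speed to give crude membranes. Ki was derived from the fitted IC50.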

Structure (SMILES) | EC50 [1] [nM] | Ki (human GIP receptor) [nM] | EC50 [2] [nM] | Ki (human GLP-1R) [nM] | Ki (human Gcg receptor) [nM]
CC[C@H](C)[C@H](NC(=O)[C@H](CC(C)C)NC(=O)[C@H](Cc1ccc(O)cc1)NC(=O)[C@H](CCC(=O)O)NC(=O)[C@@H](NC(=O)[C@H](Cc1ccccc1)NC(=O)[C@H](C)NC(=O)C(C)(C)NC(=O)[C@H](CCC(N)=O)NC(=O)[C@H](C)NC(=O)[C@H](CCCCNC(=O)COCCOCCNC(=O)COCCOCCNC(=O)CC[C@H](NC(=O)CCCCCCCCCCCCCCCCCCC(=O)O)C(=O)O)NC(=O)[C@H](CCC(=O)O)NC(=O)[C@H](CC(=O)O)NC(=O)[C@H](CC(C)C)NC(=O)C(C)(C)NC(=O)[C@@H](NC(=O)[C@H](CO)NC(=O)[C@H](Cc1ccc(O)cc1)NC(=O)[C@H](CC(=O)O)NC(=O)[C@H](CO)NC(=O)[C@@H](NC(=O)[C@](C)(Cc1ccccc1)NC(=O)[C@@H](NC(=O)CNC(=O)[C@H](CCC(=O)O)NC(=O)C(C)(C)NC(=O)[C@@H](N)Cc1ccc(O)cc1)[C@@H](C)O)[C@@H](C)O)[C@@H](C)CC)[C@@H](C)CC)C(=O)N[C@@H](CCC(=O)O)C(=O)NCC(=O)NCC(=O)N1CCC[C@H]1C(=O)N[C@@H](CO)C(=O)N[C@@H](CO)C(=O)NCC(=O)N[C@@H](C)C(=O)N1CCC[C@H]1C(=O)N1CCC[C@H]1C(=O)N1CCC[C@H]1C(=O)N[C@@H](CO)C(N)=O [Example 117] (H-Y[Aib]EGT[αMeF]TSDYSI[Aib]LDEK([AEEA-AEEA-γGlu-C20 diacid])AQ[Aib]AFIEYLIEGGPSSGAPPPS-NH2) | 0.0615 | 0.0497 | 0.0648 | 6.96 | 192
CC[C@H](C)[C@H](NC(=O)[C@H](CCCCN)NC(=O)[C@H](CCCCNC(=O)COCCOCCNC(=O)COCCOCCNC(=O)CC[C@H](NC(=O)CCCCCCCCCCCCCCCCCCC(=O)O)C(=O)O)NC(=O)[C@H](CC(C)C)NC(=O)[C@H](CC(C)C)NC(=O)[C@@H](NC(=O)[C@H](CO)NC(=O)[C@H](Cc1ccc(O)cc1)NC(=O)[C@H](CC(=O)O)NC(=O)[C@H](CO)NC(=O)[C@@H](NC(=O)[C@H](Cc1ccccc1)NC(=O)[C@@H](NC(=O)CNC(=O)[C@H](CCC(=O)O)NC(=O)C(C)(C)NC(=O)[C@@H](N)Cc1ccc(O)cc1)[C@@H](C)O)[C@@H](C)O)[C@@H](C)CC)C(=O)N[C@@H](C)C(=O)N[C@@H](CCC(N)=O)C(=O)NC(C)(C)C(=O)N[C@@H](C)C(=O)N[C@@H](Cc1ccccc1)C(=O)N[C@H](C(=O)N[C@@H](CCC(=O)O)C(=O)N[C@@H](Cc1ccc(O)cc1)C(=O)N[C@@H](CC(C)C)C(=O)N[C@H](C(=O)N[C@@H](CCC(=O)O)C(=O)NCC(=O)NCC(=O)N1CCC[C@H]1C(=O)N[C@@H](CO)C(=O)N[C@@H](CO)C(=O)NCC(=O)N[C@@H](C)C(=O)N1CCC[C@H]1C(=O)N1CCC[C@H]1C(=O)N1CCC[C@H]1C(=O)N[C@@H](CO)C(N)=O)[C@@H](C)CC)[C@@H](C)CC [Example 28] (H-Y[Aib]EGTFTSDYSILLK([AEEA-AEEA-γGlu-C20 diacid])KIAQ[Aib]AFIEYLIEGGPSSGAPPPS-NH2) | 32.7 | 0.24 | 1.66 | 21.1 | > 902
CC[C@H](C)[C@H](NC(=O)[C@H](CC(C)C)NC(=O)[C@H](Cc1ccc(O)cc1)NC(=O)[C@H](CCC(=O)O)NC(=O)[C@@H](NC(=O)[C@H](Cc1ccccc1)NC(=O)[C@H](C)NC(=O)C(C)(C)NC(=O)[C@H](CCC(N)=O)NC(=O)[C@H](C)NC(=O)[C@H](CCCCNC(=O)COCCOCCNC(=O)COCCOCCNC(=O)CC[C@H](NC(=O)CC[C@H](NC(=O)CCCCCCCCCCCCCCCCCCC(=O)O)C(=O)O)C(=O)O)NC(=O)[C@H](CCCCN)NC(=O)[C@H](CC(=O)O)NC(=O)[C@H](CC(C)C)NC(=O)[C@](C)(CC(C)C)NC(=O)[C@@H](NC(=O)[C@H](CO)NC(=O)[C@H](Cc1ccc(O)cc1)NC(=O)[C@H](CC(=O)O)NC(=O)[C@H](CO)NC(=O)[C@@H](NC(=O)[C@](C)(Cc1ccccc1)NC(=O)[C@@H](NC(=O)CNC(=O)[C@H](CCC(=O)O)NC(=O)C(C)(C)NC(=O)[C@@H](N)Cc1ccc(O)cc1)[C@@H](C)O)[C@@H](C)O)[C@@H](C)CC)[C@@H](C)CC)C(=O)N[C@@H](CCC(=O)O)C(=O)NCC(=O)NCC(=O)N1CCC[C@H]1C(=O)N[C@@H](CO)C(=O)N[C@@H](CO)C(=O)NCC(=O)N[C@@H](C)C(=O)N1CCC[C@H]1C(=O)N1CCC[C@H]1C(=O)N1CCC[C@H]1C(=O)N[C@@H](CO)C(N)=O [Example 125] | 0.0478 | 0.0624 | 0.0381 | 3.19 | 54.4
CC[C@H](C)[C@H](NC(=O)[C@H](CC(C)C)NC(=O)[C@H](Cc1ccc(O)cc1)NC(=O)[C@H](CCC(=O)O)NC(=O)[C@@H](NC(=O)[C@H](Cc1ccccc1)NC(=O)[C@H](CCCC(=O)O)NC(=O)C(C)(C)NC(=O)[C@H](CCC(N)=O)NC(=O)[C@H](C)NC(=O)[C@H](CCCCNC(=O)COCCOCCNC(=O)COCCOCCNC(=O)CC[C@H](NC(=O)CCCCCCCCCCCCCCCCCCC(=O)O)C(=O)O)NC(=O)[C@H](CCCCN)NC(=O)[C@H](CC(=O)O)NC(=O)[C@H](CC(C)C)NC(=O)[C@](C)(CC(C)C)NC(=O)[C@@H](NC(=O)[C@H](CO)NC(=O)[C@H](Cc1ccc(O)cc1)NC(=O)[C@H](CC(=O)O)NC(=O)[C@H](CO)NC(=O)[C@@H](NC(=O)[C@](C)(Cc1ccccc1)NC(=O)[C@@H](NC(=O)CNC(=O)[C@H](CCC(=O)O)NC(=O)C(C)(C)NC(=O)[C@@H](N)Cc1ccc(O)cc1)[C@@H](C)O)[C@@H](C)O)[C@@H](C)CC)[C@@H](C)CC)C(=O)N[C@@H](CCC(=O)O)C(=O)NCC(=O)NCC(=O)N1CCC[C@H]1C(=O)N[C@@H](CO)C(=O)N[C@@H](CO)C(=O)NCC(=O)N[C@@H](C)C(=O)N1CCC[C@H]1C(=O)N1CCC[C@H]1C(=O)N1CCC[C@H]1C(=O)N[C@@H](CO)C(N)=O [Example 137] (H-Y[Aib]EGT[αMeF]TSDYSI[αMeL]LDKK([AEEA-AEEA-γGlu-C20 diacid])AQ[Aib][Aad]FIEYLIEGGPSSGAPPPS-NH2) | 0.0397 | 0.0373 | 0.0333 | 1.24 | 98.1
CC[C@H](C)[C@H](NC(=O)[C@H](CCCCN)NC(=O)[C@H](CC(=O)O)NC(=O)[C@H](CC(C)C)NC(=O)[C@H](CC(C)C)NC(=O)[C@@H](NC(=O)[C@H](CO)NC(=O)[C@H](CCCCNC(=O)COCCOCCNC(=O)COCCOCCNC(=O)CC[C@H](NC(=O)CCCCCCCCCCCCCCCCCCC(=O)O)C(=O)O)NC(=O)[C@H](CC(=O)O)NC(=O)[C@H](CO)NC(=O)[C@@H](NC(=O)[C@H](Cc1ccccc1)NC(=O)[C@@H](NC(=O)CNC(=O)[C@H](CCC(=O)O)NC(=O)C(C)(C)NC(=O)[C@@H](N)Cc1ccc(O)cc1)[C@@H](C)O)[C@@H](C)O)[C@@H](C)CC)C(=O)N[C@@H](C)C(=O)N[C@@H](CCC(N)=O)C(=O)NC(C)(C)C(=O)N[C@@H](C)C(=O)N[C@@H](Cc1ccccc1)C(=O)N[C@H](C(=O)N[C@@H](CCC(=O)O)C(=O)N[C@@H](Cc1ccc(O)cc1)C(=O)N[C@@H](CC(C)C)C(=O)N[C@H](C(=O)N[C@@H](CCC(=O)O)C(=O)NCC(=O)NCC(=O)N1CCC[C@H]1C(=O)N[C@@H](CO)C(=O)N[C@@H](CO)C(=O)NCC(=O)N[C@@H](C)C(=O)N1CCC[C@H]1C(=O)N1CCC[C@H]1C(=O)N1CCC[C@H]1C(=O)N[C@@H](CO)C(N)=O)[C@@H](C)CC)[C@@H](C)CC [Example 23] (H-Y[Aib]EGTFTSDK([AEEA-AEEA-γGlu-C20 diacid])SILLDKIAQ[Aib]AFIEYLIEGGPSSGAPPPS-NH2) | 0.19 | 0.258 | 0.204 | 6.32 | > 1010
